Data on 10 compounds can be found in ChEMBL document CHEMBL4825753 (J Med Chem, 2021).

As a reminder, the IC50 is the point on the concentration scale where inhibition reaches its midpoint. The logD is lipophilicity at a set pH, counting ionised and neutral species. Read a low logD as lower lipophilicity. As a reminder, the half-life is the time in which the quantity being followed falls by half. Usually pIC50 stands for the IC50 on a negative log10 scale, so that one unit is a factor of ten.

For series [1], the target named is T1, Tyrosine-protein kinase receptor UFO (Homo sapiens, UniProt P30530).
T1 sequence (P30530 whole entry): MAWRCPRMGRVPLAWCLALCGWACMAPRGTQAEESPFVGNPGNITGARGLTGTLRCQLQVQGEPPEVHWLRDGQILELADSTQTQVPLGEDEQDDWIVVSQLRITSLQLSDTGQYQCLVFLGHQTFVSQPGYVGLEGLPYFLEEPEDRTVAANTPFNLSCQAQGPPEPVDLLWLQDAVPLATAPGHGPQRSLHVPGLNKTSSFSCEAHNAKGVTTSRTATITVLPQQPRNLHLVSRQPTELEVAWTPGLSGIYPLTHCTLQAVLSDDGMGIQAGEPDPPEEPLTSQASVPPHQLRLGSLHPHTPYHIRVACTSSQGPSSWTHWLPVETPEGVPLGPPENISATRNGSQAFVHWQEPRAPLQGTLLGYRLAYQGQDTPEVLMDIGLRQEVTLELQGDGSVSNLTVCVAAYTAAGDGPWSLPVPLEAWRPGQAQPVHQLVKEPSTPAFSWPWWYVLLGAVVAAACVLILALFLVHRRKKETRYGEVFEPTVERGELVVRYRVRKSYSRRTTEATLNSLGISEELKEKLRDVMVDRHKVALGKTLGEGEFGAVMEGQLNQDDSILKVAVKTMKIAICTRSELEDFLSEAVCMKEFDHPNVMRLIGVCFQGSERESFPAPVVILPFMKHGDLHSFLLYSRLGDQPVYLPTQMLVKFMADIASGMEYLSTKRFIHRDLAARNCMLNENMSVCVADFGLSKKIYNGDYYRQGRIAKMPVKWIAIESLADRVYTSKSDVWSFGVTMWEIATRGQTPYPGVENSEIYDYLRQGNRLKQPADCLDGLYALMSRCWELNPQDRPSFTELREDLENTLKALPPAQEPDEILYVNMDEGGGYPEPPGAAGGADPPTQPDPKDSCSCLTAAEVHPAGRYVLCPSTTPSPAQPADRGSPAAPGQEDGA
The experiment in a line: Inhibition of FLAG-tagged AXL (unknown origin) transfected in Cos-7 cells assessed as phosphorylation level incubated for 1 hr by ELISA. Format: cell-based. In general terms: ELISA stands for enzyme-linked immunosorbent assay.

Series [2] addresses T2, Receptor-type tyrosine-protein kinase FLT3 (Homo sapiens, UniProt P36888).
T2 sequence (P36888 whole entry): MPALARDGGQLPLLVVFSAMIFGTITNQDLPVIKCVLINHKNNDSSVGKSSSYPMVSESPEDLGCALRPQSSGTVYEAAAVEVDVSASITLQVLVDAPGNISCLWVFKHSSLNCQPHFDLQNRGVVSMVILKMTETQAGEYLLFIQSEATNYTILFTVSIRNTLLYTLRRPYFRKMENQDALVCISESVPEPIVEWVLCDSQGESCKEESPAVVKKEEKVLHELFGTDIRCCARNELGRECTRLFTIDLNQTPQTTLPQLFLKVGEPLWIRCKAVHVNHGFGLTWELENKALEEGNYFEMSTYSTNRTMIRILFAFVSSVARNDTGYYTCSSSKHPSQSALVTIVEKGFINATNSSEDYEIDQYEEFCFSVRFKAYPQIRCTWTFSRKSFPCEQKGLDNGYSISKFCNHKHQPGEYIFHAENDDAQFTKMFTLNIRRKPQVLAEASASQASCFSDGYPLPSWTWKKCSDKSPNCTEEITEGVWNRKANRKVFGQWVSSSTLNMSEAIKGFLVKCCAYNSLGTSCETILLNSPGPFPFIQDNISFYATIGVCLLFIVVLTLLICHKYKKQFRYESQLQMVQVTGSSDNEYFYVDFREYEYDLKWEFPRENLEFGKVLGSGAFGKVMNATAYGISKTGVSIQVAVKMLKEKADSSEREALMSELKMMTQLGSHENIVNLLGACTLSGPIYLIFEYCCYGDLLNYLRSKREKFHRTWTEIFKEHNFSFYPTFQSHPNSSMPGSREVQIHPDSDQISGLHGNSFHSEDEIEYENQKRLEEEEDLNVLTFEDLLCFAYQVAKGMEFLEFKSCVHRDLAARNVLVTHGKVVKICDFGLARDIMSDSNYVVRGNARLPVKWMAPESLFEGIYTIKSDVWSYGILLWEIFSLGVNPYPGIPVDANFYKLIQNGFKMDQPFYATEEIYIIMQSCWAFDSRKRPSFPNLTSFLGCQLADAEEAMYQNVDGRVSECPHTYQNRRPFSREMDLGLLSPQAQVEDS
The series is described as follows: Inhibition of FLAG-tagged FLT3 (unknown origin) transfected in Cos-7 cells assessed as phosphorylation level incubated for 1 hr by ELISA. The class given is cell-based.

A short description of series [3]: Lipophilicity, log D of the compound at pH 7.4. The class given is physicochemical. As to conditions: buffer.
In series [4] the target is T3, Tyrosine-protein kinase receptor TYRO3 (Homo sapiens, UniProt Q06418).
T3 sequence (Q06418 whole entry): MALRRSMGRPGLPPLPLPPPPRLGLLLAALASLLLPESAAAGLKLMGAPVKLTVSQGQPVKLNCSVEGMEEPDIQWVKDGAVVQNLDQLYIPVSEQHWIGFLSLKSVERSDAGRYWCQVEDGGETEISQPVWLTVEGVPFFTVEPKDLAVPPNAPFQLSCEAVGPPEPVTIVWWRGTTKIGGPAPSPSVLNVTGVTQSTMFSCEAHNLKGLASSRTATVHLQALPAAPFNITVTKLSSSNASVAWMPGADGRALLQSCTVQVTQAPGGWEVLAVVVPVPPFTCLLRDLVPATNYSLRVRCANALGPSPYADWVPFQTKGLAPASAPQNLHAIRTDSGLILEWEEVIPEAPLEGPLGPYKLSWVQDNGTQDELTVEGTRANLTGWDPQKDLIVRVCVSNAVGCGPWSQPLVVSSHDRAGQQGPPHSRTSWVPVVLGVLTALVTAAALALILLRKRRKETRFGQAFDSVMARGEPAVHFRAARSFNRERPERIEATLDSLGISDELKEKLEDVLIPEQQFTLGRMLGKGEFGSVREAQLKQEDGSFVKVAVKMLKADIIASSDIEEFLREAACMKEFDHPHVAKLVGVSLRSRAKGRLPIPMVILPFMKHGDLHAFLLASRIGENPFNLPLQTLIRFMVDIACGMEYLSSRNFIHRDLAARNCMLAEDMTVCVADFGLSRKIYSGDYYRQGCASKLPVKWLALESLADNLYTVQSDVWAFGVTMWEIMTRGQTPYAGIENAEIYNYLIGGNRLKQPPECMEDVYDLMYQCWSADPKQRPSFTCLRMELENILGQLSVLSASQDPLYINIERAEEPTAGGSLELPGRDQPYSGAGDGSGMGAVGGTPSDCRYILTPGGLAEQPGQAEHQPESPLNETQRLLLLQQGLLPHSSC
The experiment in a line: Inhibition of FLAG-tagged Tyro3 (unknown origin) transfected in Cos-7 cells assessed as phosphorylation level incubated for 1 hr by ELISA. Format: cell-based.

Series [5] in a line: Photostability of compound assessed as half life. Format: physicochemical.
A short description of series [6]: Induction efferocytosis in human PBMC assessed as CD14-positive monocytes.
Series [7] addresses T4, Tyrosine-protein kinase Mer (Homo sapiens, UniProt Q12866).
T4 sequence (Q12866 whole entry): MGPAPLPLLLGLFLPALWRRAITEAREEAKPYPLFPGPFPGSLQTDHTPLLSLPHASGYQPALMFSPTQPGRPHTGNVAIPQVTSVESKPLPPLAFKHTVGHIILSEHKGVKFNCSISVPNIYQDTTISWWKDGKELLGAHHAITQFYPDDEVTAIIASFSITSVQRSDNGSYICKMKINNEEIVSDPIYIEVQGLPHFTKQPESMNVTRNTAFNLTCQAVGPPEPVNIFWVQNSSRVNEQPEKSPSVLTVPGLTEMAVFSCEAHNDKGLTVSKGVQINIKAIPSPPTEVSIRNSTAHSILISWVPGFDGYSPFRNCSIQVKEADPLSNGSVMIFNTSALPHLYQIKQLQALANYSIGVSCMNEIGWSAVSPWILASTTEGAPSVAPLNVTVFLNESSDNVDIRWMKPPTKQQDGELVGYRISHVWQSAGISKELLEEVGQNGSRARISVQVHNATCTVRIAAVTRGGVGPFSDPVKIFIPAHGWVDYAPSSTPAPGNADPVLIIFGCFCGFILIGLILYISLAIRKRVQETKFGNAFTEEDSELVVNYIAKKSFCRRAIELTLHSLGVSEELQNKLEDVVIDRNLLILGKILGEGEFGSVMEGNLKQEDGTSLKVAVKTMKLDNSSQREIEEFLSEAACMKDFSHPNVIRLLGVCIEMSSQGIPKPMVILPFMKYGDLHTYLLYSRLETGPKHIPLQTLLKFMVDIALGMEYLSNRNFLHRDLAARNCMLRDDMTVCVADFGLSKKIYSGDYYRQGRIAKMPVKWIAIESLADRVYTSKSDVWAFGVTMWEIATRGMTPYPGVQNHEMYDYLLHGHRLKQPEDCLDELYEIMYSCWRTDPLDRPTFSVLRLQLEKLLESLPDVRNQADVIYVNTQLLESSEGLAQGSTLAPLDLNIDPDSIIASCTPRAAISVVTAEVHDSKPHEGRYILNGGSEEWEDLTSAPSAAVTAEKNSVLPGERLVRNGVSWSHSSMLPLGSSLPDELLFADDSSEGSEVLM
The series is described as follows: Inhibition of MER (unknown origin) by LC-MS analysis.

In series [8] the target is T1, Tyrosine-protein kinase receptor UFO. The experiment in a line: Inhibition of AXL (unknown origin) by LC-MS analysis.
In series [9] the target is T2, Receptor-type tyrosine-protein kinase FLT3. The series is described as follows: Inhibition of FLT3 (unknown origin) by LC-MS analysis.

In the case of `Cc1cc(-c2c(C)nn(C)c2C)ccc1-c1nnc(N(C)Cc2ccc3ncc(-c4ccccc4)n3c2)o1`, the figures for the IC50 in series [1], in [2] and in [4] were 0.2 µM, 7.94 µM and 20 µM, respectively. This compound also yielded a logD in series [3] of 5.3. The half-life in [5] is 11.4 days. In addition, in series [6], the negative-log IC50 (pIC50) is listed as 6.7.

In the case of `Cc1cc(-c2c(C)nn(C)c2C)cnc1-c1nnc(N(C)Cc2ccc3ncc(-c4ccc(CN(C)C)nc4)n3c2)o1`, the IC50 in series [1] was 1.58 µM; in [2], > 31.6 µM; in series [4] it was > 31.6 µM. In series [3], this compound had a logD of 2.5.

Regarding `Cc1cc(-c2c(C)nn(C)c2C)cnc1-c1nnc(N(C)Cc2ccc3ncc(-c4ccc(CN(C)C)cn4)n3c2)o1`, the figures for the IC50 in series [1], in series [2] and in series [4] were 0.126 µM, 25.1 µM and > 31.6 µM, respectively. In addition, the logD in [3] was determined as 3. Also, the pIC50 in series [6] was found to be 7.2.

For the compound `Cc1cc(-c2c(C)nn(C)c2C)ccc1-c1nnc(N(C)Cc2ccc3ncc(-c4cnn(C)c4)n3c2)o1`, the values for the IC50 in series [1], in series [2] and in series [4] were 0.0631 µM, 12.6 µM and 12.6 µM, respectively. The logD in series [3] came out at 4. Further, in [5], the half-life was 11.4 days. Also, the negative logarithm of the IC50 (pIC50) in [6] was 7.2.

For `Cc1cc(-c2c(C)nn(C)c2C)ccc1-c1nnc(N(C)Cc2ccc3ncc(C4CCN(C)CC4)n3c2)o1`, the IC50 in series [1] is 1.26 µM; in series [2], > 31.6 µM; in series [4] it was > 31.6 µM. This compound displayed a pH-dependent lipophilicity (logD) in [3] of 2.5. Moreover, the pIC50 in series [6] is given as 6.9.

For the compound `Cc1cc(-c2c(C)nn(C)c2C)cnc1-c1nnc(N(C)Cc2ccc3ncc(-c4cccc(CN(C)C)c4)n3c2)o1`, the 50% inhibitory concentration (IC50) in series [1] is 0.316 µM; in series [2], > 31.6 µM; in series [4], > 31.6 µM. This compound showed a pH-dependent lipophilicity (logD) in [3] of 3. For the same compound, the pIC50 in series [6] was 7.

For the compound `Cc1cc(-c2c(C)nn(C)c2C)cnc1-c1nnc(N(C)Cc2ccc3ncc(-c4cnn(CCN(C)C)c4)n3c2)o1`, the IC50 was 1 µM in series [1], > 31.6 µM in [2] and > 31.6 µM in series [4]. This compound also had a logD in series [3] of 2.7. Also, the negative logarithm of the IC50 (pIC50) in [6] was 7.1.

For the compound `Cc1cc(-c2c(C)nn(C)c2C)ccc1-c1nnc(N(C)Cc2ccc3ncc(C(=O)N(C)C)n3c2)o1`, the IC50 is 0.398 µM in [1], 10 µM in series [2] and 25.1 µM in [4]. In series [3], this compound came in with a logD of 3.3. In addition, the half-life in series [5] is 17.8 days. Also, the pIC50 in [6] was found to be 7.1.

Consider `Cc1cc(-c2c(C)nn(C)c2C)ccc1-c1nnc(N(C)Cc2ccc3ncc(-c4cnn(CCN(C)C)c4)n3c2)o1`, for which the results for the IC50 in series [1], in series [2] and in [4] were 0.126 µM, > 31.6 µM and 12.6 µM, respectively. The logD in series [3] was found to be 3.5. The pIC50 in series [6] came to 7.8.

For the compound `Cc1nn(C)c(C)c1-c1ccc(-c2nnc(N(C)Cc3ccc4nccn4c3)o2)c(Cl)c1`, the half-maximal inhibitory concentration (IC50) in series [7] is 0.00251 µM; in series [8], 0.0794 µM; in [9], 20 µM; in series [1], 0.794 µM; in series [2] it was > 31.6 µM. The same compound showed a log distribution coefficient (logD) in [3] of 3.3.
